According to ChEMBL document CHEMBL1201862, “PubChem BioAssay data set” (2004):
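Cultured in 96-well plates, cells were exposed to test compound for 48 hours across five concentrations. At the GI50, growth is halved.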 Calls of active or inactive are those of the source. Cut-off read from the data, not from the text of the source: active = GI50 up to about 1.1 µM and inactive = higher.

Legend:
Assay in all cases: NCI tumour cell line growth inhibition, 48 h
UACC-257 = system: UACC-257
SF-539 = system: SF-539
DLD-1 = system: DLD-1
RPMI-8226 = system: RPMI-8226
SW-620 = system: SW-620
UACC-62 = system: UACC-62
HCC 2998 = system: HCC 2998
SNB-75 = system: SNB-75
SK-MEL-28 = system: SK-MEL-28
KM-20L2 = system: KM-20L2
HOP-92 = system: HOP-92
DMS-114 = system: DMS-114
CAKI-1 = system: CAKI-1
MOLT-4 = system: MOLT-4
OVCAR-8 = system: OVCAR-8
HOP-18 = system: HOP-18
UO-31 = system: UO-31
TK-10 = system: TK-10
KM12 = system: KM12
HCT-15 = system: HCT-15
HOP-62 = system: HOP-62
Malme-3M = system: Malme-3M
A498 = system: A498
SNB-19 = system: SNB-19
NCI-H460 = system: NCI-H460
LXFL 529 = system: LXFL 529
M19-MEL = system: M19-MEL
K562 = system: K562
A549 = system: A549
OVCAR-4 = system: OVCAR-4
DMS-273 = system: DMS-273
IGROV-1 = system: IGROV-1
HT-29 = system: HT-29
OVCAR-3 = system: OVCAR-3
ACHN = system: ACHN
SNB-78 = system: SNB-78
M14 = system: M14
786-0 = system: 786-0
SF-295 = system: SF-295
NCI-H522 = system: NCI-H522
HCT-116 = system: HCT-116
SK-OV-3 = system: SK-OV-3
SK-MEL-5 = system: SK-MEL-5
NCI-H23 = system: NCI-H23
HL-60 = system: HL-60
NCI-H226 = system: NCI-H226
LOX IMVI = system: LOX IMVI
SF-268 = system: SF-268
SK-MEL-2 = system: SK-MEL-2
CCRF-CEM = system: CCRF-CEM
OVCAR-5 = system: OVCAR-5
EKVX = system: EKVX
RXF 393 = system: RXF 393
COLO 205 = system: COLO 205
U-251 = system: U-251
SR = system: SR
SN12C = system: SN12C

CN(N=O)C(=O)ON1C(=O)CCC1=O
GI50 (UACC-257): > 100 µM (inactive)
GI50 (SF-539): > 100 µM (inactive)
GI50 (DLD-1): > 100 µM (inactive)
GI50 (RPMI-8226): > 100 µM (inactive)
GI50 (SW-620): > 100 µM (inactive)
GI50 (UACC-62): > 100 µM (inactive)
GI50 (HCC 2998): > 100 µM (inactive)
GI50 (SNB-75): 54.1 µM (inactive)
GI50 (SK-MEL-28): > 100 µM (inactive)
GI50 (KM-20L2): > 100 µM (inactive)
GI50 (HOP-92): > 100 µM (inactive)
GI50 (DMS-114): > 100 µM (inactive)
GI50 (CAKI-1): > 100 µM (inactive)
GI50 (MOLT-4): > 100 µM (inactive)
GI50 (OVCAR-8): > 100 µM (inactive)
GI50 (HOP-18): > 100 µM (inactive)
GI50 (UO-31): > 100 µM (inactive)
GI50 (TK-10): > 100 µM (inactive)
GI50 (KM12): > 100 µM (inactive)
GI50 (HCT-15): > 100 µM
GI50 (HOP-62): > 100 µM (inactive)
GI50 (Malme-3M): > 100 µM (inactive)
GI50 (A498): > 100 µM (inactive)
GI50 (SNB-19): > 100 µM (inactive)
GI50 (NCI-H460): 47.8 µM (inactive)
GI50 (LXFL 529): > 100 µM (inactive)
GI50 (M19-MEL): > 100 µM (inactive)
GI50 (K562): > 100 µM (inactive)
GI50 (A549): > 100 µM (inactive)
GI50 (OVCAR-4): > 100 µM (inactive)
GI50 (DMS-273): > 100 µM (inactive)
GI50 (IGROV-1): > 100 µM (inactive)
GI50 (HT-29): > 100 µM (inactive)
GI50 (OVCAR-3): > 100 µM (inactive)
GI50 (ACHN): > 100 µM (inactive)
GI50 (SNB-78): > 100 µM (inactive)
GI50 (M14): > 100 µM (inactive)
GI50 (786-0): > 100 µM (inactive)
GI50 (SF-295): > 10 µM (inactive)
GI50 (NCI-H522): > 100 µM (inactive)
GI50 (HCT-116): > 100 µM (inactive)
GI50 (SK-OV-3): > 100 µM (inactive)
GI50 (SK-MEL-5): > 100 µM (inactive)
GI50 (NCI-H23): > 100 µM (inactive)
GI50 (HL-60): > 100 µM (inactive)
GI50 (NCI-H226): > 100 µM (inactive)
GI50 (LOX IMVI): > 100 µM (inactive)
GI50 (SF-268): > 100 µM (inactive)
GI50 (SK-MEL-2): > 100 µM (inactive)
GI50 (CCRF-CEM): > 100 µM (inactive)
GI50 (OVCAR-5): > 100 µM (inactive)
GI50 (EKVX): > 100 µM (inactive)

O=C(c1ccco1)N(C(=S)N1CCN(c2ccccn2)CC1)C1CCCCC1
GI50 (UACC-257): > 100 µM (inactive)
GI50 (SF-539): > 100 µM (inactive)
GI50 (DLD-1): > 100 µM (inactive)
GI50 (RPMI-8226): > 100 µM (inactive)
GI50 (SW-620): > 100 µM (inactive)
GI50 (UACC-62): > 100 µM (inactive)
GI50 (SNB-75): > 100 µM (inactive)
GI50 (SK-MEL-28): > 100 µM (inactive)
GI50 (KM-20L2): > 100 µM (inactive)
GI50 (HOP-92): > 100 µM (inactive)
GI50 (RXF 393): > 100 µM (inactive)
GI50 (DMS-114): 77.3 µM (inactive)
GI50 (CAKI-1): > 100 µM (inactive)
GI50 (MOLT-4): 83.4 µM (inactive)
GI50 (OVCAR-8): > 100 µM (inactive)
GI50 (HOP-18): > 100 µM (inactive)
GI50 (UO-31): 83.4 µM (inactive)
GI50 (TK-10): > 100 µM (inactive)
GI50 (KM12): > 100 µM (inactive)
GI50 (HCT-15): > 100 µM
GI50 (HOP-62): > 100 µM (inactive)
GI50 (Malme-3M): > 100 µM (inactive)
GI50 (SNB-19): > 100 µM (inactive)
GI50 (NCI-H460): > 100 µM (inactive)
GI50 (LXFL 529): > 100 µM (inactive)
GI50 (M19-MEL): > 100 µM (inactive)
GI50 (COLO 205): > 100 µM (inactive)
GI50 (K562): > 100 µM (inactive)
GI50 (A549): > 100 µM (inactive)
GI50 (OVCAR-4): > 100 µM (inactive)
GI50 (DMS-273): > 100 µM (inactive)
GI50 (IGROV-1): > 100 µM (inactive)
GI50 (HT-29): > 100 µM (inactive)
GI50 (U-251): > 100 µM (inactive)
GI50 (OVCAR-3): > 100 µM (inactive)
GI50 (ACHN): > 100 µM (inactive)
GI50 (SNB-78): > 100 µM (inactive)
GI50 (M14): > 100 µM (inactive)
GI50 (786-0): > 100 µM (inactive)
GI50 (SR): > 100 µM (inactive)
GI50 (SF-295): > 100 µM (inactive)
GI50 (NCI-H522): > 100 µM (inactive)
GI50 (HCT-116): > 100 µM (inactive)
GI50 (SK-OV-3): > 100 µM (inactive)
GI50 (SN12C): > 100 µM (inactive)
GI50 (SK-MEL-5): > 100 µM (inactive)
GI50 (NCI-H23): > 100 µM (inactive)
GI50 (HL-60): > 100 µM (inactive)
GI50 (NCI-H226): > 100 µM (inactive)
GI50 (LOX IMVI): > 100 µM (inactive)
GI50 (SF-268): > 100 µM (inactive)
GI50 (SK-MEL-2): > 100 µM (inactive)
GI50 (CCRF-CEM): > 100 µM (inactive)
GI50 (OVCAR-5): > 100 µM (inactive)
